Measured values taken from PMC10390775, “CETP inhibitor evacetrapib enters mouse brain tissue” (Frontiers in Pharmacology, 2023).
Where “and” joins values, the source holds several entries; their conditions need not be identical. Equal entries are not always repeated. Where two headings read alike, the source gives them in different places.

Experiment: Pharmacokinetics of evacetrapib in plasma, liver and brain after a single tail vein injection (UHPLC-MS-qTOF)
Format: in vivo, hCETPtg mice (C57BL/6J background)
Conditions: for Brain peak concentration above plasma IC50: IC50 36 nM in human plasma; for k el: read-out: Kβ (elimination rate constant) (converted); for half-life: read-out: t1/2β (half-life) (converted); for Kp: accounting for residual blood, read-out: Tissue penetration ratio (AUC brain / AUC plasma); for MRT: read-out: MRT (mean residence time); for clearance: read-out: CL (drug clearance) (converted); for Vd: read-out: Vss (volume of distribution at steady state)
Procedure: The experiment was performed in conformity with the OECD Guidelines 417 ([OECD, 2010]). Male hCETPtg mice were chosen for the pharmacokinetic analysis. Mice were fed Teklad Global Diets #2018 from Envigo, Canada, for 8 weeks starting from birth, followed by a diet change of modified low-fat RD Western diet to match TD.08485 with 1% cholesterol from research diets #D16121201 for a duration of 3–4 weeks. Throughout that period, tap water was provided ad libitum. Initially, evacetrapib was solubilized in 20% of the final solution volume of Kolliphor® EL (pH range 6.0–8.0, cat# C5135) by alternating between 5 min intervals using an ultrasonic water bath at 4°C and a hot water bath at 50°C until complete dissolution. Then, 80% of the final volume was added (isotonic glucose solution 50 g/L glucose containing D-(+)-glucose Sigma cat# G7021 in MilliQ water, sterile filtered).
CETP inhibitor evacetrapib was administered through tail vein injection at doses of 40 mg/kg body weight (BW) or 120 mg/kg BW. Mice weighed 28.42 ± 3.16 g on the day of injection. They were randomly divided into two groups: 24 mice received a dose of 40 mg/kg BW of evacetrapib and the other 24 received a dose of 120 mg/kg BW. Mice from both groups were euthanized at 0, 0.5, 2, 6, 12, and 24 h after injection. Mice euthanized at later time points had continued access to food and water until the end of the experiment. Blood was collected (300–500 µL) at euthanasia for each mouse by cardiac puncture. Blood plasma was extracted using 10 µL of 1 M EDTA pH 8.0 solution in MilliQ water. Brain and liver tissues were collected immediately after euthanasia, rinsed in 0.9% NaCl solution, and snap-frozen in liquid nitrogen. Samples were stored at −80°C until analysis.
Sample preparation and digestion for evacetrapib analysis were performed using UHPLC-MS-qTOF. Working solutions from a stock of evacetrapib were prepared at concentrations of 10 μmol, 100 nmol, 1 nmol, 500 pmol, and 125 pmol per ml of methanol. Working solutions of anacetrapib used as an internal standard were prepared at concentrations of 10 μmol, 100 nmol, and 1 nmol per ml from a stock solution.
Brain and liver samples were homogenized using a polytron supplemented with a carbonate buffer at pH 9.8. The volume was adjusted such that each sample reached a final concentration of 100 mg/ml of buffer. A volume of 0.5 ml of homogenate was transferred to a Pyrex tube and enriched with 100 µL of 1 nmol/ml anacetrapib solution used as an internal standard. Then, samples were extracted twice using 4 ml of saturated ethyl acetate. For each extraction, samples were shaken for 30 min using a lateral shaker, followed by a centrifugation round (20 min, 3,000 rpm, 4°C). Organic phases were collected, combined, and then evaporated until dry under a nitrogen stream in a rotating bath at 40°C. The residues were resuspended in methanol. Samples were vortexed until no residues were left. Resuspended residues for both the brain and liver were then centrifuged (20 min, 3,000 rpm, 4°C). The supernatant was recovered, transferred into new vials, and injected into UHPLC-MS-qTOF. For the plasma measurement, 20 µL of plasma was enriched with 100 µL of 1 nmol/ml anacetrapib solution in a microtube. Evacetrapib was extracted using two steps of ethanol wash (200 µL) followed by an incubation time (30 min, 22°C) and centrifugation (5 min, 16,000 g, 10°C). Samples were dried under a gentle nitrogen stream to separate the liquid phase from the solid phase. The residues were subsequently dissolved in methanol, vortexed until no residues were left, and centrifuged (20 min, 3,000 rpm, 4°C). The supernatant was recovered, transferred into new vials, and injected into UHPLC-MS-qTOF.
Quantification was performed using a seven-point calibration curve with the internal standard correction prepared in the brain, liver, or plasma, respectively. […]

[1] = liver, 120 mg/kg BW i.v., 120 mg/kg
[2] = male, hCETPtg (C57BL/6J background), mouse, brain, iv, 40 mg/kg, brain, 40 mg/kg BW i.v.
[3] = male, hCETPtg (C57BL/6J background), mouse, brain, iv, 120 mg/kg, brain, 120 mg/kg BW i.v.
[4] = male, hCETPtg (C57BL/6J background), mouse, iv, plasma, 40 mg/kg BW i.v.
[5] = male, hCETPtg (C57BL/6J background), mouse, iv, plasma, 120 mg/kg BW i.v.
[6] = male, hCETPtg (C57BL/6J background), mouse, liver, iv, 40 mg/kg, liver, 40 mg/kg BW i.v.
[7] = male, hCETPtg (C57BL/6J background), mouse, liver, iv, 120 mg/kg, liver, 120 mg/kg BW i.v.
[8] = male, hCETPtg (C57BL/6J background), mouse, plasma, iv, 40 mg/kg, plasma, 40 mg/kg BW i.v.
[9] = male, hCETPtg (C57BL/6J background), mouse, plasma, iv, 120 mg/kg, plasma, 120 mg/kg BW i.v.

In the case of Cc1cc(C)c2c(c1)[C@@H](N(Cc1cc(C(F)(F)F)cc(C(F)(F)F)c1)c1nnn(C)n1)CCCN2C[C@H]1CC[C@H](C(=O)O)CC1 [evacetrapib], the “Peak concentration in the brain after correction for residual blood” value (40 mg/kg BW i.v.) is reported as 1.5 µM, the “Av. conc. in brain, calculated (corrected for residual blood)” value (40 mg/kg BW i.v., 0 h) is reported as 0.00 nmol/g and the “Av. conc. in brain, measured (not corrected for residual blood)” value (40 mg/kg BW i.v., 0 h) is reported as 2.05 nmol/g. For the same compound, the “Av. conc. in brain, calculated (corrected for residual blood)” value (40 mg/kg BW i.v., 0.5 h) was 1.5 nmol/g and 1.53 nmol/g, the “Av. conc. in brain, measured (not corrected for residual blood)” value (40 mg/kg BW i.v., 0.5 h) was 2.21 nmol/g and the “Av. conc. in brain, calculated (corrected for residual blood)” value (40 mg/kg BW i.v., 2 h) was 1.0 nmol/g and 1.03 nmol/g. The “Av. conc. in brain, measured (not corrected for residual blood)” value (40 mg/kg BW i.v., 2 h) was 1.41 nmol/g, the “Av. conc. in brain, calculated (corrected for residual blood)” value (40 mg/kg BW i.v., 6 h) was 0.5 nmol/g and 0.50 nmol/g and the “Av. conc. in brain, measured (not corrected for residual blood)” value (40 mg/kg BW i.v., 6 h) was 0.57 nmol/g. The “Av. conc. in brain, calculated (corrected for residual blood)” value (40 mg/kg BW i.v., 12 h) was 0.1 nmol/g and 0.11 nmol/g, the “Av. conc. in brain, measured (not corrected for residual blood)” value (40 mg/kg BW i.v., 12 h) was 0.12 nmol/g and the “Av. conc. in brain, calculated (corrected for residual blood)” value (40 mg/kg BW i.v., 24 h) was 0.00 nmol/g. For the same compound, the “Av. conc. in brain, measured (not corrected for residual blood)” value (40 mg/kg BW i.v., 24 h) was 0.00 nmol/g, the “Brain peak concentration above plasma IC50” value (40 mg/kg BW i.v.) was “approximately 40 fold” and the “Peak concentration in the brain after correction for residual blood” value (120 mg/kg BW i.v.) was 16.7 µM. For the same compound, the “Av. conc. in brain, calculated (corrected for residual blood)” value (120 mg/kg BW i.v., 0 h) was 0 nmol/g and 0.00 nmol/g, the “Av. conc. in brain, measured (not corrected for residual blood)” value (120 mg/kg BW i.v., 0 h) was 22.2 nmol/g and the “Av. conc. in brain, calculated (corrected for residual blood)” value (120 mg/kg BW i.v., 0.5 h) was 16.7 nmol/g. The “Av. conc. in brain, measured (not corrected for residual blood)” value (120 mg/kg BW i.v., 0.5 h) was 25.8 nmol/g, the “Av. conc. in brain, calculated (corrected for residual blood)” value (120 mg/kg BW i.v., 2 h) was 15.3 nmol/g and the “Av. conc. in brain, measured (not corrected for residual blood)” value (120 mg/kg BW i.v., 2 h) was 17.1 nmol/g. For the same compound, the “Av. conc. in brain, calculated (corrected for residual blood)” value (120 mg/kg BW i.v., 6 h) was 5.0 nmol/g and 4.96 nmol/g, the “Av. conc. in brain, measured (not corrected for residual blood)” value (120 mg/kg BW i.v., 6 h) was 5.36 nmol/g and the “Av. conc. in brain, calculated (corrected for residual blood)” value (120 mg/kg BW i.v., 12 h) was 1.0 nmol/g and 1.00 nmol/g. The “Av. conc. in brain, measured (not corrected for residual blood)” value (120 mg/kg BW i.v., 12 h) was 1.11 nmol/g, the “Av. conc. in brain, calculated (corrected for residual blood)” value (120 mg/kg BW i.v., 24 h) was 0.02 nmol/g and the “Av. conc. in brain, measured (not corrected for residual blood)” value (120 mg/kg BW i.v., 24 h) was 0.03 nmol/g. The “Brain peak concentration above plasma IC50” value (120 mg/kg BW i.v.) was ~450 fold, the “Increase of tissue penetration ratio from the low to the high dose” value (120 vs 40 mg/kg BW i.v.) was 1.63 fold and the AUMC (brain, 40 mg/kg BW i.v.) was 39.2 nmol x h^2/mL. The AUC (brain, 40 mg/kg BW i.v., 24 h) was 10.6 nmol x h/mL, the AUMC (brain, 120 mg/kg BW i.v.) was 395 nmol x h^2/mL and the AUC (brain, 120 mg/kg BW i.v., 24 h) was 115 nmol x h/mL. The “Time of peak plasma values” (first sampling time point, 40 and 120 mg/kg BW i.v.) was 0 h, the “Entry into brain tissue” value (hCETPtg mice, i.v. injection) was “does enter the mouse brain tissue” and the AUMC (liver, 40 mg/kg BW i.v.) was 1183 nmol x h^2/mL. For the same compound, the AUC (liver, 40 mg/kg BW i.v., 24 h) was 267 nmol x h/mL, the “t1/2β (half-life)” value (liver, 40 mg/kg BW i.v., 40 mg/kg) was 3.0 h and the AUMC (liver, 120 mg/kg BW i.v.) was 3167 nmol x h^2/mL. The AUC (liver, 120 mg/kg BW i.v., 24 h) was 881 nmol x h/mL, the “Kβ (elimination rate constant)” value [1] was 0.2 h⁻¹ and the “t1/2β (half-life)” value [1] was 3.2 h. It also gave a k el [2] of 5.56e-05 s⁻¹, a half-life [2] of 2.8 h and a k el [3] of 8.33e-05 s⁻¹. It also gave a half-life [3] of 2.5 h, a Kp (male, hCETPtg (C57BL/6J background), mouse, brain, iv, 40 mg/kg BW i.v.) of 0.08 and a Kp (male, hCETPtg (C57BL/6J background), mouse, brain, iv, 120 mg/kg BW i.v.) of 0.13. The Tmax (male, hCETPtg (C57BL/6J background), mouse, brain, iv, both doses, 40 and 120 mg/kg BW i.v., read-out: Time of peak concentration in the brain) was 0.5 h, the MRT (male, hCETPtg (C57BL/6J background), mouse, iv, brain, 40 mg/kg BW i.v.) was 3.7 h and the MRT (male, hCETPtg (C57BL/6J background), mouse, iv, brain, 120 mg/kg BW i.v.) was 3.4 h. The MRT (male, hCETPtg (C57BL/6J background), mouse, iv, liver, 40 mg/kg BW i.v.) was 4.4 h, the MRT (male, hCETPtg (C57BL/6J background), mouse, iv, liver, 120 mg/kg BW i.v.) was 3.6 h and the clearance [4] was 0.157 mL/min. For the same compound, the MRT [4] was 2 h, the Vd [4] was 0.0185 L and the clearance [5] was 0.055 mL/min. It also gave an MRT [5] of 1.6 h, a Vd [5] of 0.0053 L and a k el [6] of 5.56e-05 s⁻¹. The half-life [6] was 2.8 h, the k el [7] was 8.33e-05 s⁻¹ and the half-life [7] was 2.5 h. It also gave a k el [8] of 0.000111 s⁻¹, a half-life [8] of 2.3 h and a k el [9] of 5.56e-05 s⁻¹. The half-life [9] was 3 h, the AUMC (plasma, 40 mg/kg BW i.v.) was 398 nmol x h^2/mL and the Kα (plasma, 40 mg/kg BW i.v.) was 6.5 h⁻¹. The t1/2α (plasma, 40 mg/kg BW i.v.) was 0.1 h, the AUC (plasma, 40 mg/kg BW i.v., 24 h) was 203 nmol x h/mL and the AUMC (plasma, 120 mg/kg BW i.v.) was 2297 nmol x h^2/mL. The Kα (plasma, 120 mg/kg BW i.v.) was 1.8 h⁻¹, the t1/2α (plasma, 120 mg/kg BW i.v.) was 0.4 h and the AUC (plasma, 120 mg/kg BW i.v., 24 h) was 1418 nmol x h/mL.
